Measurements taken from the NIST ThermoML archive (doi:10.1016/j.jct.2017.03.006).

Assay: xn = mol fraction of the nth substance listed
Conditions: Liquid; for viscosity: Concentric cylinders viscometry; for mass density: Vibrating tube method

Cc1ccc(C)c(C)c1 [1,2,4-trimethylbenzene] + CCCCO
Conditions | mass density [kg/m3] | viscosity [mPa·s]
313.15 K, 100 kPa, x2 = 0 | 859 | –
313.15 K, 100 kPa, x2 = 0.1005 | 853.7 | –
313.15 K, 100 kPa, x2 = 0.2261 | 847.1 | –
313.15 K, 100 kPa, x2 = 0.2999 | 843.2 | –
313.15 K, 100 kPa, x2 = 0.3966 | 837.7 | –
313.15 K, 100 kPa, x2 = 0.5289 | 829.9 | –
313.15 K, 100 kPa, x2 = 0.53 | – | 0.882
313.15 K, 100 kPa, x2 = 0.6367 | 822.9 | –
313.15 K, 100 kPa, x2 = 0.637 | – | 0.994
313.15 K, 100 kPa, x2 = 0.7249 | 816.8 | –
313.15 K, 100 kPa, x2 = 0.7975 | – | 1.254
313.15 K, 100 kPa, x2 = 0.7977 | 811.4 | –
313.15 K, 100 kPa, x2 = 0.9131 | 802 | 1.516
313.15 K, 1000 kPa, x2 = 0 | 859.7 | –
313.15 K, 1000 kPa, x2 = 0.1005 | 854.4 | –
313.15 K, 1000 kPa, x2 = 0.2261 | 847.8 | –
313.15 K, 1000 kPa, x2 = 0.2999 | 843.9 | –
313.15 K, 1000 kPa, x2 = 0.3966 | 838.4 | –
313.15 K, 1000 kPa, x2 = 0.5289 | 830.6 | –
313.15 K, 1000 kPa, x2 = 0.6367 | 823.6 | –
313.15 K, 1000 kPa, x2 = 0.7249 | 817.5 | –
313.15 K, 1000 kPa, x2 = 0.7977 | 812 | –
313.15 K, 1000 kPa, x2 = 0.9131 | 802.8 | –
313.15 K, 5000 kPa, x2 = 0 | 862.6 | –
313.15 K, 5000 kPa, x2 = 0.1005 | 857.3 | –
313.15 K, 5000 kPa, x2 = 0.2261 | 850.7 | –
313.15 K, 5000 kPa, x2 = 0.2999 | 846.9 | –
313.15 K, 5000 kPa, x2 = 0.3966 | 841.5 | –
313.15 K, 5000 kPa, x2 = 0.5289 | 833.7 | –
313.15 K, 5000 kPa, x2 = 0.6367 | 826.7 | –
313.15 K, 5000 kPa, x2 = 0.7249 | 820.6 | –
313.15 K, 5000 kPa, x2 = 0.7977 | 815.2 | –
313.15 K, 5000 kPa, x2 = 0.9131 | 805.9 | –
313.15 K, 10000 kPa, x2 = 0 | 866 | –
313.15 K, 10000 kPa, x2 = 0.1005 | 860.8 | –
313.15 K, 10000 kPa, x2 = 0.2261 | 854.3 | –
313.15 K, 10000 kPa, x2 = 0.2999 | 850.5 | –
313.15 K, 10000 kPa, x2 = 0.3966 | 845.1 | –
313.15 K, 10000 kPa, x2 = 0.5289 | 837.3 | –
313.15 K, 10000 kPa, x2 = 0.6367 | 830.4 | –
313.15 K, 10000 kPa, x2 = 0.7249 | 824.3 | –
313.15 K, 10000 kPa, x2 = 0.7977 | 818.9 | –
313.15 K, 10000 kPa, x2 = 0.9131 | 809.7 | –
313.15 K, 20000 kPa, x2 = 0 | 872.6 | –
313.15 K, 20000 kPa, x2 = 0.1005 | 867.5 | –
313.15 K, 20000 kPa, x2 = 0.2261 | 861 | –
313.15 K, 20000 kPa, x2 = 0.2999 | 857.2 | –
313.15 K, 20000 kPa, x2 = 0.3966 | 851.9 | –
313.15 K, 20000 kPa, x2 = 0.5289 | 844.1 | –
313.15 K, 20000 kPa, x2 = 0.6367 | 837.3 | –
313.15 K, 20000 kPa, x2 = 0.7249 | 831.2 | –
313.15 K, 20000 kPa, x2 = 0.7977 | 825.8 | –
313.15 K, 20000 kPa, x2 = 0.9131 | 816.7 | –
313.15 K, 30000 kPa, x2 = 0 | 878.7 | –
313.15 K, 30000 kPa, x2 = 0.1005 | 873.8 | –
313.15 K, 30000 kPa, x2 = 0.2261 | 867.4 | –
313.15 K, 30000 kPa, x2 = 0.2999 | 863.6 | –
313.15 K, 30000 kPa, x2 = 0.3966 | 858.3 | –
313.15 K, 30000 kPa, x2 = 0.5289 | 850.6 | –
313.15 K, 30000 kPa, x2 = 0.6367 | 843.7 | –
313.15 K, 30000 kPa, x2 = 0.7249 | 837.7 | –
313.15 K, 30000 kPa, x2 = 0.7977 | 832.4 | –
313.15 K, 30000 kPa, x2 = 0.9131 | 823.2 | –
313.15 K, 40000 kPa, x2 = 0 | 884.5 | –
313.15 K, 40000 kPa, x2 = 0.1005 | 879.6 | –
313.15 K, 40000 kPa, x2 = 0.2261 | 873.2 | –
313.15 K, 40000 kPa, x2 = 0.2999 | 869.5 | –
313.15 K, 40000 kPa, x2 = 0.3966 | 864.1 | –
313.15 K, 40000 kPa, x2 = 0.5289 | 856.5 | –
313.15 K, 40000 kPa, x2 = 0.6367 | 849.7 | –
313.15 K, 40000 kPa, x2 = 0.7249 | 843.7 | –
313.15 K, 40000 kPa, x2 = 0.7977 | 838.4 | –
313.15 K, 40000 kPa, x2 = 0.9131 | 829.4 | –
313.15 K, 50000 kPa, x2 = 0 | 889.9 | –
313.15 K, 50000 kPa, x2 = 0.1005 | 885 | –
313.15 K, 50000 kPa, x2 = 0.2261 | 878.7 | –
313.15 K, 50000 kPa, x2 = 0.2999 | 875 | –
313.15 K, 50000 kPa, x2 = 0.3966 | 869.7 | –
313.15 K, 50000 kPa, x2 = 0.5289 | 862.1 | –
313.15 K, 50000 kPa, x2 = 0.6367 | 855.3 | –
313.15 K, 50000 kPa, x2 = 0.7249 | 849.4 | –
313.15 K, 50000 kPa, x2 = 0.7977 | 844 | –
313.15 K, 50000 kPa, x2 = 0.9131 | 835 | –
313.15 K, 60000 kPa, x2 = 0 | 895 | –
313.15 K, 60000 kPa, x2 = 0.1005 | 890.2 | –
313.15 K, 60000 kPa, x2 = 0.2261 | 883.9 | –
313.15 K, 60000 kPa, x2 = 0.2999 | 880.2 | –
313.15 K, 60000 kPa, x2 = 0.3966 | 875 | –
313.15 K, 60000 kPa, x2 = 0.5289 | 867.4 | –
313.15 K, 60000 kPa, x2 = 0.6367 | 860.6 | –
313.15 K, 60000 kPa, x2 = 0.7249 | 854.7 | –
313.15 K, 60000 kPa, x2 = 0.7977 | 849.3 | –
313.15 K, 60000 kPa, x2 = 0.9131 | 840.3 | –
313.15 K, 70000 kPa, x2 = 0 | 899.9 | –
313.15 K, 70000 kPa, x2 = 0.1005 | 895.2 | –
313.15 K, 70000 kPa, x2 = 0.2261 | 888.9 | –
313.15 K, 70000 kPa, x2 = 0.2999 | 885.2 | –
313.15 K, 70000 kPa, x2 = 0.3966 | 880 | –
313.15 K, 70000 kPa, x2 = 0.5289 | 872.5 | –
313.15 K, 70000 kPa, x2 = 0.6367 | 865.6 | –
313.15 K, 70000 kPa, x2 = 0.7249 | 859.8 | –
313.15 K, 70000 kPa, x2 = 0.7977 | 854.4 | –
313.15 K, 70000 kPa, x2 = 0.9131 | 845.4 | –
313.15 K, 80000 kPa, x2 = 0 | 904.6 | –
313.15 K, 80000 kPa, x2 = 0.1005 | 899.9 | –
313.15 K, 80000 kPa, x2 = 0.2261 | 893.7 | –
313.15 K, 80000 kPa, x2 = 0.2999 | 890.1 | –
313.15 K, 80000 kPa, x2 = 0.3966 | 884.8 | –
313.15 K, 80000 kPa, x2 = 0.5289 | 877.3 | –
313.15 K, 80000 kPa, x2 = 0.6367 | 870.5 | –
313.15 K, 80000 kPa, x2 = 0.7249 | 864.6 | –
313.15 K, 80000 kPa, x2 = 0.7977 | 859.3 | –
313.15 K, 80000 kPa, x2 = 0.9131 | 850.3 | –
313.15 K, 90000 kPa, x2 = 0 | 909 | –
313.15 K, 90000 kPa, x2 = 0.1005 | 904.4 | –
313.15 K, 90000 kPa, x2 = 0.2261 | 898.1 | –
313.15 K, 90000 kPa, x2 = 0.2999 | 894.5 | –
313.15 K, 90000 kPa, x2 = 0.3966 | 889.2 | –
313.15 K, 90000 kPa, x2 = 0.5289 | 881.9 | –
313.15 K, 90000 kPa, x2 = 0.6367 | 875.1 | –
313.15 K, 90000 kPa, x2 = 0.7249 | 869.1 | –
313.15 K, 90000 kPa, x2 = 0.7977 | 863.8 | –
313.15 K, 90000 kPa, x2 = 0.9131 | 854.8 | –
313.15 K, 100000 kPa, x2 = 0 | 913.3 | –
313.15 K, 100000 kPa, x2 = 0.1005 | 908.7 | –
313.15 K, 100000 kPa, x2 = 0.2261 | 902.5 | –
313.15 K, 100000 kPa, x2 = 0.2999 | 898.8 | –
313.15 K, 100000 kPa, x2 = 0.3966 | 893.6 | –
313.15 K, 100000 kPa, x2 = 0.5289 | 886.2 | –
313.15 K, 100000 kPa, x2 = 0.6367 | 879.4 | –
313.15 K, 100000 kPa, x2 = 0.7249 | 873.5 | –
313.15 K, 100000 kPa, x2 = 0.7977 | 868.2 | –
313.15 K, 100000 kPa, x2 = 0.9131 | 859.2 | –
313.15 K, 120000 kPa, x2 = 0 | 921.4 | –
313.15 K, 120000 kPa, x2 = 0.1005 | 916.9 | –
313.15 K, 120000 kPa, x2 = 0.2261 | 910.7 | –
313.15 K, 120000 kPa, x2 = 0.2999 | 907.1 | –
313.15 K, 120000 kPa, x2 = 0.3966 | 901.9 | –
313.15 K, 120000 kPa, x2 = 0.5289 | 894.5 | –
313.15 K, 120000 kPa, x2 = 0.6367 | 887.7 | –
313.15 K, 120000 kPa, x2 = 0.7249 | 881.8 | –
313.15 K, 120000 kPa, x2 = 0.7977 | 876.5 | –
313.15 K, 120000 kPa, x2 = 0.9131 | 867.5 | –
313.15 K, 140000 kPa, x2 = 0 | 928.9 | –
313.15 K, 140000 kPa, x2 = 0.1005 | 924.3 | –
313.15 K, 140000 kPa, x2 = 0.2261 | 918.7 | –
313.15 K, 140000 kPa, x2 = 0.2999 | 914.5 | –
313.15 K, 140000 kPa, x2 = 0.3966 | 909.6 | –
313.15 K, 140000 kPa, x2 = 0.5289 | 902.2 | –
313.15 K, 140000 kPa, x2 = 0.6367 | 895.5 | –
313.15 K, 140000 kPa, x2 = 0.7249 | 889.6 | –
313.15 K, 140000 kPa, x2 = 0.7977 | 884.4 | –
313.15 K, 140000 kPa, x2 = 0.9131 | 875.3 | –
323.15 K, 100 kPa, x2 = 0 | – | 0.62
323.15 K, 100 kPa, x2 = 0.1002 | – | 0.615
323.15 K, 100 kPa, x2 = 0.2327 | – | 0.631
323.15 K, 100 kPa, x2 = 0.3 | – | 0.653
323.15 K, 100 kPa, x2 = 0.3969 | – | 0.683
323.15 K, 100 kPa, x2 = 0.53 | – | 0.754
323.15 K, 100 kPa, x2 = 0.637 | – | 0.835
